ChEMBL document CHEMBL1201862, “PubChem BioAssay data set” (2004)
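48-hour exposure; five concentrations; linearly interpolated endpoints. At the GI50, growth is halved.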 Activity calls are given as the source filed them. Cut-off read from the data, not from the text of the source: active = GI50 up to about 1.1 µM and inactive = higher.

Assays:
Assay in all cases: NCI anticancer screen, dose series, 48 h
CCRF-CEM = tested on: CCRF-CEM
SNB-75 = tested on: SNB-75
A498 = tested on: A498
SK-OV-3 = tested on: SK-OV-3
A549 = tested on: A549
SN12C = tested on: SN12C
HCT-116 = tested on: HCT-116
SF-268 = tested on: SF-268
UACC-257 = tested on: UACC-257
786-0 = tested on: 786-0
SR = tested on: SR
MOLT-4 = tested on: MOLT-4
OVCAR-3 = tested on: OVCAR-3
SK-MEL-2 = tested on: SK-MEL-2
KM12 = tested on: KM12
NCI-H226 = tested on: NCI-H226
DU-145 = tested on: DU-145
MDA-N = tested on: MDA-N
PC-3 = tested on: PC-3

Structure (SMILES) | GI50 (CCRF-CEM) | GI50 (SNB-75) | GI50 (A498) | GI50 (SK-OV-3) | GI50 (A549) | GI50 (SN12C) | GI50 (HCT-116) | GI50 (SF-268) | GI50 (UACC-257) | GI50 (786-0) | GI50 (SR) | GI50 (MOLT-4) | GI50 (OVCAR-3) | GI50 (SK-MEL-2) | GI50 (KM12) | GI50 (NCI-H226) | GI50 (DU-145) | GI50 (MDA-N) | GI50 (PC-3)
CCCCCCCCCOC(=S)NCCCCC | 22.9 µM (inactive) | 42.3 µM (inactive) | 24.3 µM (inactive) | 29.4 µM (inactive) | 28.2 µM (inactive) | 26.2 µM (inactive) | 22.2 µM (inactive) | 37.2 µM (inactive) | 24.8 µM (inactive) | 35.6 µM (inactive) | 20.5 µM (inactive) | 19 µM (inactive) |  |  |  |  |  |  | 
CCOc1c(Cc2ccccc2)c(=O)n2c3ccccc3n3c(=O)n(C)c(=O)c1c23 |  | 27.2 µM (inactive) | > 100 µM (inactive) | > 100 µM (inactive) | > 100 µM (inactive) | > 100 µM (inactive) | > 100 µM (inactive) | > 100 µM (inactive) | > 100 µM (inactive) | > 100 µM (inactive) | > 100 µM (inactive) | > 100 µM (inactive) | > 100 µM (inactive) | > 100 µM (inactive) | > 100 µM (inactive) |  |  |  | 
CC1C(=O)N(C)C2(CO)C(=O)O[C@H](C)C12O (some centres undefined) |  |  |  | > 100 µM (inactive) | > 100 µM (inactive) |  | > 100 µM (inactive) | > 100 µM (inactive) |  | > 100 µM (inactive) | > 100 µM (inactive) | > 100 µM (inactive) | > 100 µM (inactive) | > 100 µM (inactive) | > 100 µM (inactive) |  |  |  | 
Cc1[nH]c2ccccc2c1CC/C(=N\Nc1ccccc1)c1ccccc1 | > 100 µM (inactive) | 28.7 µM (inactive) | > 100 µM (inactive) | > 100 µM (inactive) | > 100 µM (inactive) |  | > 100 µM (inactive) |  | > 100 µM (inactive) | > 100 µM (inactive) |  | > 100 µM (inactive) | > 100 µM (inactive) | > 100 µM (inactive) | > 100 µM (inactive) | > 100 µM (inactive) |  |  | 
OC[C@@H]1CC#C/C=C\C#CC[C@@H]1CO |  |  |  | > 100 µM (inactive) |  |  | > 100 µM (inactive) | < 0.01 µM (active) |  | > 100 µM (inactive) |  | > 100 µM (inactive) | > 100 µM (inactive) | > 100 µM (inactive) | > 100 µM (inactive) |  |  |  | 
CCOC(=O)/C(=C/c1ccc(OC)c(OC)c1)C(=O)c1ccccc1 | 9.64 µM (inactive) | 12.4 µM (inactive) | 22.3 µM (inactive) | 24.2 µM (inactive) | 28.2 µM (inactive) | > 10 µM (inactive) |  | 14.8 µM (inactive) | 15.1 µM (inactive) | > 100 µM (inactive) |  | 17.5 µM (inactive) | 18 µM (inactive) | 38.5 µM (inactive) | 14.9 µM (inactive) |  |  |  | 
COc1ccc(/C=C2\CCC(CCN3CCOCC3)C2=O)cc1 (centres undefined) | > 100 µM (inactive) | > 100 µM (inactive) | > 100 µM (inactive) |  | > 100 µM (inactive) | > 100 µM (inactive) | > 100 µM (inactive) | > 100 µM (inactive) | > 100 µM (inactive) | > 100 µM (inactive) | > 100 µM (inactive) | > 100 µM (inactive) | > 100 µM (inactive) | > 100 µM (inactive) | > 100 µM (inactive) | > 100 µM (inactive) |  |  | 
O=c1oc2c3ccc4ccccc4c3n(CCN3CCCCC3)c2c2ccccc12 | 9.35 µM (inactive) | 4.98 µM (inactive) |  | 43.1 µM (inactive) | 15.6 µM (inactive) | > 100 µM (inactive) | 31.8 µM (inactive) | 31.4 µM (inactive) | > 62.5 µM (inactive) | 10.3 µM (inactive) | 3.21 µM (inactive) | 2.46 µM (inactive) | 18.5 µM (inactive) | 26.5 µM (inactive) | 79.1 µM (inactive) |  |  |  | 
C=CCNC(=S)N1c2ccccc2NC(=O)CC1C (centres undefined) | > 100 µM (inactive) | 54.6 µM (inactive) |  |  | > 100 µM (inactive) | > 100 µM (inactive) | > 100 µM (inactive) | > 100 µM (inactive) |  | > 100 µM (inactive) | > 100 µM (inactive) | > 100 µM (inactive) | > 100 µM (inactive) | > 100 µM (inactive) | > 100 µM (inactive) | > 100 µM (inactive) |  |  | 
C/N=C(\SC)N(C)c1nc(=[N+](C)C)ss1.[O-][Cl+3]([O-])([O-])[O-] | 4.17 µM (inactive) | 3.81 µM (inactive) | 4.61 µM (inactive) | > 100 µM (inactive) | > 100 µM (inactive) | > 100 µM (inactive) | > 100 µM (inactive) | > 100 µM (inactive) | > 100 µM (inactive) | > 100 µM (inactive) | 56 µM (inactive) | 9.53 µM (inactive) |  | > 100 µM (inactive) | > 100 µM (inactive) | > 100 µM (inactive) |  |  | 
N#CC(C(=O)C(=O)Nc1ccc(Cl)c(Cl)c1)c1ccc(Cl)cc1 (centres undefined) | 48.1 µM (inactive) | > 100 µM (inactive) | > 100 µM (inactive) | > 100 µM (inactive) | 97.3 µM (inactive) | 91 µM (inactive) | 23.6 µM (inactive) | > 100 µM (inactive) | > 100 µM (inactive) | 41 µM (inactive) | 51.9 µM (inactive) | 64.7 µM (inactive) | 37.7 µM (inactive) | 34.2 µM (inactive) | > 100 µM (inactive) | > 100 µM (inactive) |  |  | 
CN(C)CC1CCCC/C1=N/OC(=O)c1ccc(Cl)cc1 (centres undefined) | > 100 µM (inactive) | > 100 µM (inactive) | > 100 µM (inactive) | > 100 µM (inactive) | > 100 µM (inactive) | > 100 µM (inactive) | > 100 µM (inactive) | > 100 µM (inactive) | > 100 µM (inactive) | > 100 µM (inactive) | > 100 µM (inactive) | > 100 µM (inactive) | > 100 µM (inactive) | > 100 µM (inactive) | > 100 µM (inactive) | > 100 µM (inactive) |  |  | 
Cn1c(=O)c2nc(-c3ccc(Cl)cc3)oc2n(C)c1=O | > 100 µM (inactive) | > 100 µM (inactive) | > 100 µM (inactive) |  | > 100 µM (inactive) | > 100 µM (inactive) | > 100 µM (inactive) | > 100 µM (inactive) | > 100 µM (inactive) | > 100 µM (inactive) | > 100 µM (inactive) | > 100 µM (inactive) | > 100 µM (inactive) | > 100 µM (inactive) | > 100 µM (inactive) | > 100 µM (inactive) |  |  | 
N=C(N)N/N=C(/CCN1CCCC1)CC(c1ccccc1)c1c(O)c2ccccc2oc1=O (centres undefined) | > 10 µM (inactive) | > 100 µM (inactive) |  | > 100 µM (inactive) | > 100 µM (inactive) | > 100 µM (inactive) | > 100 µM (inactive) | > 100 µM (inactive) | > 100 µM (inactive) | > 100 µM (inactive) |  |  | > 100 µM (inactive) | > 100 µM (inactive) |  | > 100 µM (inactive) |  |  | 
Cc1ccc(NC(=O)SCCC(=O)O)cc1NC(=O)SCCC(=O)O | > 100 µM (inactive) |  | > 100 µM (inactive) |  | > 100 µM (inactive) | > 100 µM (inactive) | > 100 µM (inactive) | > 100 µM (inactive) | > 100 µM (inactive) | > 100 µM (inactive) | > 100 µM (inactive) | > 100 µM (inactive) | > 100 µM (inactive) | > 100 µM (inactive) | > 100 µM (inactive) | > 100 µM (inactive) |  |  | 
CC(C)c1cccc(C(C)C)c1NC(=O)C(=O)C1SC(=S)NC1=O (centres undefined) | > 100 µM (inactive) | > 100 µM (inactive) | > 100 µM (inactive) | > 100 µM (inactive) | > 100 µM (inactive) | > 100 µM (inactive) | > 100 µM (inactive) | > 100 µM (inactive) | > 100 µM (inactive) | > 100 µM (inactive) | > 100 µM (inactive) | > 100 µM (inactive) |  | > 100 µM (inactive) | > 100 µM (inactive) | > 100 µM (inactive) |  |  | 
COC(=O)NN1C(C)=C(C(=O)OC)C2(C#N)C(C(=O)OC)=C(C)N(NC(=O)OC)C12N (centres undefined) | > 100 µM (inactive) |  | > 100 µM (inactive) | > 100 µM (inactive) | > 100 µM (inactive) | > 100 µM (inactive) | > 100 µM (inactive) | > 100 µM (inactive) | > 100 µM (inactive) | > 100 µM (inactive) |  | > 100 µM (inactive) |  | > 100 µM (inactive) |  | > 100 µM (inactive) |  |  | 
Cc1cc(Cl)ccc1NC(=O)/C(CC(=O)CC(c1ccccc1)c1c(O)c2ccccc2oc1=O)=N\O (centres undefined) | 7.87 µM (inactive) | > 100 µM (inactive) |  | > 100 µM (inactive) | > 100 µM (inactive) | > 100 µM (inactive) | > 100 µM (inactive) | > 100 µM (inactive) | > 100 µM (inactive) | > 100 µM (inactive) |  | > 100 µM (inactive) | > 100 µM (inactive) | > 100 µM (inactive) | > 100 µM (inactive) | > 100 µM (inactive) | > 100 µM (inactive) | > 100 µM (inactive) | > 100 µM (inactive)
Cc1ccc(S(=O)OC2c3ccccc3Cc3ccccc32)cc1 (centres undefined) |  | 17.9 µM (inactive) | 21.9 µM (inactive) | 19.5 µM (inactive) | 27.3 µM (inactive) | 20.3 µM (inactive) | 17.1 µM (inactive) | 20.7 µM (inactive) | 19.3 µM (inactive) | 21.7 µM (inactive) | 21.8 µM (inactive) | 19.2 µM (inactive) | 21.5 µM (inactive) |  | 21.2 µM (inactive) | 18.5 µM (inactive) |  |  | 
CCNC(=O)O/N=C1/C=C2CC[C@@H]3C(CC[C@@]4(C)C3CC[C@@H]4OC(=O)NCC)[C@@]2(C)CC1 (some centres undefined) |  | 2.09 µM (inactive) | > 100 µM (inactive) | 3.68 µM (inactive) | 3.98 µM (inactive) | 4.28 µM (inactive) | 3.67 µM (inactive) |  | 2.24 µM (inactive) | 3.23 µM (inactive) |  | 2.36 µM (inactive) |  | 2.21 µM (inactive) | 2.54 µM (inactive) |  |  |  | 
